# According to article PMC3522636, “4F Decreases IRF5 Expression and Activation in Hearts of Tight Skin Mice” (PLoS ONE, 2012):
# “Also recorded” adds a separate entry of the source.
# How the values were obtained:
# TNFα, Il-6, and Il-1 = details: cited from earlier work
# Excerpt: The purpose of this study was to investigate an alternative mechanism for 4F decreasing myocardial inflammation in Tsk^−/+mice. While our previous report focused on 4F’s ability to decrease inflammation by improving HDL function, the current study determines the effects of 4F on IRF5. We chose to investigate this potential mechanism for two important reasons. […] These inflammatory mediators are all gene products of IRF5 [9], [29]. Second, genetic links between IRF5 and SSc have been ide ...
# Tsk−/+ mice = details: 1 mg/kg/d, 6–8 weeks; cited from earlier work
# Excerpt: One of the reasons that we felt 4F decreased inflammation by a mechanism(s) other than those mediated by HDL function, was the extreme differences in the histopathology of the hearts from untreated and 4F treated Tsk^−/+ mice. Untreated Tsk^−/+ hearts contained much higher levels of oxidized phospholipids, and autoantibodies against oxidized lipids than control hearts. In addition, untreated Tsk^−/+ hearts were also more fibrotic and expressed more angiostatin than control hearts, which likely contributed to the notable losses in angiogenic potential in the hearts of these mice. Wh ...
# Tsk−/+ hearts = assay: TUNEL assay, apoptotic cells in heart sections; type: in vivo, mouse; details: 4F 1 mg/kg/d, sc; 4F-treated vs untreated Tsk−/+ hearts
# Excerpt: (§1) All experimental procedures and protocols involving mice were reviewed and approved by the Institutional Animal Care and Use Committee (IACUC) of the Medical College of Wisconsin (AUA#512). They also conformed to the rules in the Guiding Principles in the Care and Use of Animals published by the American Physiologic Society and the Guide for the Care and Use of Laboratory Animals published by OLAW. Male Tsk^−/+ and C57Bl/6J mice (6–8 weeks of age) were purchased from Jackson Laboratories (Bar Harbor, ME). Three groups of mice were studied; C57Bl/6J, Tsk^−/+, and Tsk^−/+ mice treated with 4F (1 mg/kg/d, sc) as published previously.
# Hearts were harvested from mice, flash frozen and imbedded in OCT and cut into 10 µm sections. A TUNEL assay was performed on the sections using an ApopTag Plus Fluorescein labeled kit (Millipore, Billerica, MA, Cat# S7111) as per the manufacturer’s instructions. Briefly, the free 3'OH DNA termini were labeled in situ with an anti-digoxigenin antibody conjugated to fluorescein. Nuclei were stained with TO-PRO 3™ for 3 minutes (1 µg/ml, Invitrogen). Slides were mounted and analyzed by confocal microscopy (Nikon Eclipse TE2000-U, EZ-C1-2 10 software, Nikon, Melville, NY). Images were captured using 488 nm excitation for fluorescein and 633 nm for nuclear labeling. Intensity was measured using Nikon Element imaging software (Nikon).
# IRF5 [1] = assay: IRF5 immunoprecipitation, phosphoserine and ubiquitin on IRF5 in heart lysates; type: in vivo, mouse
# Excerpt: as §1
# To determine the effects of strain and 4F treatments on the activation state of IRF5 we immunoprecipitated IRF5 from heart homogenates and examined changes in phosphoserine and ubiquitination on IRF5 using previously published protocols, [15]. Briefly, heart homogenates were precleared with agarose beads for 1 hour followed by addition of anti-IRF5 antibody (Santa Cruz Biotechnologies) to the homogenates (500 µg in 0.5 ml) at 5 µg/100 µl (final concentration). Samples were incubated for 16 h at 4°C with end-over-end mixing. A 50 µl aliquot of a 50% slurry of Protein A agarose beads (Santa Cruz Biotechnologies) was added and incubated for 2 h with end-over-end mixing to pull-down immunocaptured IRF5. The beads were isolated by centrifugation and washed 3 times (3 minutes each time) in PBS. IRF5 was released from the beads with Laemmli sample buffer (Bio-Rad, Hercules, CA) containing mercaptoethanol and heating to 95°C for 5 min. IRF5 was separated from co-precipitated proteins by SDS-PAGE (4–15% Tris·HCl Criterion gels, Bio-Rad) and the proteins transferred onto nitrocellulose membranes. Membranes were blocked in 10% non-fat dry milk and then incubated in 2% non-fat dry milk containing polyclonal rabbit anti-phosphoserine (Antibodies-Online, Atlanta, GA, 1∶200 dilution), monoclonal mouse anti-ubiquitin (Santa Cruz Biotechnologies, 1∶200 dilution) or monoclonal mouse anti-K^63 ubiquitin (Enzo, Farmingdale, NY, 1∶500 dilution) overnight at 4°C. The next day, the membranes were gently washed and incubated with the HRP-conjugated donkey anti-rabbit antibody (1∶5,000, Santa Cruz Biotechnologies). Autoradiograms were developed; images of bands captured and densities analyzed as described above.
# [2] = test system: Human umbilical vein endothelial cells; assay: Cellular uptake of B-4F in endothelial cells; type: cell-based; details: B-4F 10 and 50 µg/ml; vs unlabeled 4F; 4 hours (method), 3 hours (Figure 6); confocal
# Procedure: Human umbilical vein endothelial cells (EC; Lonza, Walkersville, MD) were incubated in EGM complete media containing 4F or B-4F (10 and 50 µg/ml) for 4 hours. The EC cultures were washed with PBS, fixed in PBS containing 1% paraformaldehyde, and permeabilized with PBS containing 0.5% Triton-X. The permeabilized sections were incubated with fluorescein-conjugated streptavidin (1 µg/ml) for 30 minutes followed by 3 PBS washes. The fixed and fluorescently labeled slides were mounted in aqueous mounting media and sections inspected and analyzed by confocal microscopy.
# IRF5 [3] = assay: Western blot, myocardial IRF5 expression; type: in vivo, mouse; details: 4F 1 mg/kg/d, sc
# Excerpt: as §1
# Hearts harvested from C57Bl/6J, Tsk^−/+ and 4F-treated Tsk ^−/+ mice were snap-frozen and stored at −80°C for subsequent analysis. Frozen hearts were pulverized in a stainless steel mortar and pestle bathed in liquid nitrogen. The frozen powder was dissolved and homogenized in lysis buffer [MOPS pH 7.0, 20 mM; EGTA 2 mM; EDTA 5mM; NaF 30 mM; Protease Inhibitor Cocktail (Complete Mini Roche, Roche, Madison WI); Phosphatase Inhibitor Cocktail (Sigma P5726)]. Lysate proteins were quantified using BCA (bicinchoninic acid) reagent (Pierce, Rockford, IL). […] Band densities were analyzed using Image J software (NIH, Bethesda, MD).
substance,measurement,setting,value
Ac-DWFKAFYDKVAEKFKEAF-NH2 [4F],"expression of TNFα, Il-6, and Il-1","TNFα, Il-6, and Il-1","decreases expression of TNFα, Il-6, and Il-1"
same,oxidized phospholipids and autoantibodies against oxidized phospholipids in hearts,Tsk−/+ mice,"essentially eliminated oxidized phospholipids, and autoantibodies against oxidized phospholipids from the hearts"
same,TUNEL positive (apoptotic) cells,Tsk−/+ hearts,decreased both measurements in Tsk^−/+ hearts; also recorded: significantly decreased the number of TUNEL positive cells in Tsk^−/+ hearts compared to the number in untreated Tsk^−/+ hearts but not to the level of TUNEL positive cells in C57Bl/6J hearts; also recorded: increased compared with the levels in the hearts of C57BL/6J mice and hearts from 4F-treated Tsk^−/+ mice; also recorded: fewer apoptotic cells than hearts from untreated Tsk^−/+ mice
same,phosphoserine levels on IRF5 (in words),"IRF5 [1]; 4F 1 mg/kg/d, sc, Tsk−/+ hearts, IRF5 immunoprecipitates",decrease phosphoserine; also recorded: reduced phosphoserine levels on IRF5 in Tsk^−/+ hearts
same,decrease of phosphoserine levels on IRF5,"IRF5 [1]; 4F-treated Tsk−/+ hearts vs C57BL/6J and untreated Tsk−/+ hearts, IRF5 immunoprecipitates, Western blot",about 15%
same,total ubiquitin on IRF5,"IRF5 [1]; 4F-treated Tsk−/+ hearts vs C57BL/6J hearts, * = p<0.05, n = 4, IRF5 immunoprecipitates",increase total ubiquitin on IRF5; also recorded: increased in 4F-treated Tsk^−/+ hearts compared with the levels on IRF5 in C57BL/6J hearts; also recorded: significantly increased total ubiquitin levels on IRF5 in the Tsk^−/+ hearts
same,IRF5 activation (in words),"IRF5 [1]; 4F-treated Tsk−/+ hearts, inferred from phosphoserine and ubiquitin on IRF5",decrease IRF5 expression and activation in Tsk^−/+ hearts; also recorded: inactivated in 4F-treated Tsk^−/+ hearts
same,uptake into EC (in words),[2],enters EC in a concentration-dependent fashion
same,reduction of IRF5 in Tsk−/+ hearts (band density),"IRF5 [3]; 6 weeks, vs untreated Tsk−/+ hearts",78%
same,myocardial IRF5 expression (in words),"IRF5 [3]; 6–8 weeks, Tsk−/+ hearts",decrease IRF5 in Tsk^−/+ hearts; also recorded: markedly decreased IRF5 expression in Tsk^−/+ hearts; also recorded: markedly decrease IRF5 expression in Tsk^−/+ myocardium; also recorded: decreases myocardial expression of IRF5; also recorded: decreases IRF5 levels and activation in the Tsk^−/+ mouse hearts
